# Experimental data as given in patent US20130041005A1, “PHARMACEUTICAL COMPOSITIONS COMPRISING NEUROPILIN INHIBITORS, AND THEIR USE FOR THE PREVENTION AND/OR TREATMENT OF ANGIOGENIC DISORDERS AND CANCERS” (TRAGEX PHARMA, priority 2011, published 2013).
# Assays:
# MDAMB-231 cells = experiment: Adhesion test (crystal violet), MDA-MB-231; format: cell-based, Human; details: MDAMB-231, FIGS. 1A-C
# Procedure: The crystal violet (hexamethyl pararosaniline chloride) is used as biologic colorant. It enters in the living cells, allowing the visualisation of the dark purple adherent living cells on the bottom of the plate.
# After an incubation period of 72 h, the adherent cells were fixed with […] paraformaldehyde
# 3% for 15 min at room temperature. The medium and non-adherent cells were removed, and the cells were washed extensively with […] PBS (+Ca^2+ and +Mg^2+) (Lonza) and then stained with 50 μl of crystal violet 0.04% for 30 min at room temperature. The cells were washed gently 3 times with 100 μl PBS and were permeabilised with 100 μl triton 2% for 15 min. The microplate was stirred to obtain a homogenous solution and absorbance was quantified at 580 nm by Microplate Manager 5.2.
# The percentage of inhibition is calculated as follow: % inhibition=100−[(DOsample/DOcontrol)*100].
# MDA-MB-231 = experiment: WST-1 proliferation assay, MDA-MB-231; format: cell-based, Human; details: MDAMB-231 cell survival, FIGS. 1A-C
# Procedure: (§1) Cells were grown as subconfluent monolayer and cultured in 75 cm^2 flasks at 37° C., 5% CO2 in a humidified atmosphere, and medium was changed every two days. Only cells from passages 2-6 were used for the experiments.
# (§2) All cells were detached with 3 ml of trypsin/EDTA (chelator of calcium and magnesium ions) (Lonza), incubated for 5 min at 37° C., and examined using a microscope to ensure that the cells were detached and floating. […] The supernatant was removed and the cell pellet resuspended in […] of culture medium. 50 μl of this solution were transferred in 20 μl of isotonic solution and the cells were counted by count cellular (Beckman Coulter).
# (§3) The cell proliferation WST-1 assay is a colorimetric assay for the quantification of cell proliferation and viability, based on the enzymatic cleavage of the tetrazolium salt WST-1 added to the culture medium, to a water soluble colored formazan dye, detected by absorbance at 450 nm, by mitochondrial succinate-tetrazolium reductase in viable cells. An augmentation in enzyme activity will then lead to an increase in the amount of formazan dye formed, which directly correlates to the number of metabolically active cells in the culture.
# (§4) After an incubation period of 72 h, at day 4, were prepared the […] medium with reagent WST-1 […] ([…]). The medium was removed from the 96 microplate and 200 μl of solution WST-1/medium were added for each well. The cells were incubated at 37° C. in a humidified atmosphere of 5% CO2 for 1 h 30 and the absorbance at 450-655 nm was measured by Microplate Manager 5.2 (Bio-Rad).
# HUVEC cells = experiment: WST-1 proliferation assay, HUVEC; format: cell-based; details: FIG. 1 cell survival
# Procedure: as §1, §2, §3, §4
# NRP-1 = molecular target: T1, NRP-1 (Homo sapiens, UniProt O14786); experiment: ELISA inhibition of VEGF binding to NRP-1; details: compounds at 10 μM
# T1 construct: purchased R&D Systems, UK 3870-N1-025
# T1 sequence (O14786 22-644 isoform O14786-2 limits assumed): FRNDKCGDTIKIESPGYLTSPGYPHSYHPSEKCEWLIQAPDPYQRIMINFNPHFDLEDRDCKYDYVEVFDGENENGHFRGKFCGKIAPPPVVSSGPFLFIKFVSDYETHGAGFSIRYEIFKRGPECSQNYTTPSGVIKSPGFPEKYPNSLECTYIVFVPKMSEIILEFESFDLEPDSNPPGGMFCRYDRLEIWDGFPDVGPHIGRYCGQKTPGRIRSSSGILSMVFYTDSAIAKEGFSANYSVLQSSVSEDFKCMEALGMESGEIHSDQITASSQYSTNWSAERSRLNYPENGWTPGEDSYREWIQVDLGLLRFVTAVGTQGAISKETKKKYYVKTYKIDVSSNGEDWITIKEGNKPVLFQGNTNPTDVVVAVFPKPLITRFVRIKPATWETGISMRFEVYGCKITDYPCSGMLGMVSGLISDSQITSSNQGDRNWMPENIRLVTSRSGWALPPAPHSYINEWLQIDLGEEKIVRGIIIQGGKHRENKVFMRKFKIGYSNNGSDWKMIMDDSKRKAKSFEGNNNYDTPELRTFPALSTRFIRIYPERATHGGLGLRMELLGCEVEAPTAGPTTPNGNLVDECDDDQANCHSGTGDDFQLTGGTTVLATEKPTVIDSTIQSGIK
# Procedure: Elisa test was performed covering a 96-well microplate (BD Biosciences, France, cat no 353046) surface with 100 μl of 1×PBS, pH 7.4 with Ca^2+ and Mg^2+, (Lonza, France, cat no 17-513F/12) solution containing 0.2 μg/ml of VEGF-R1 (R&D Systems, UK, cat no 321-FL-050/CF) or 2 μg/ml of NRP-1 (R&D Systems, UK, cat no 3870-N1-025) or NRP-2 (R&D Systems, UK, cat no […]). The plate was sealed and incubated overnight at 4° C. After 3 washes with 200 μl of 1×PBS 0.5% (v/v) Tween 20 (Sigma, France, cat no 34078) (Buffer A), the plate was blocked by adding 200 μl of 1×PBS with 0.5% (w/v) BSA (Eurobio, France, cat no GAUBSA01-65) and agitated at 37° C. for 2 h. After washing five times with Buffer A, 50 μl/well of the compounds of the invention at 10 μM were added for the specific signal and 50 μl/well for the non-specific and max binding signal and incubated at 37° C. for 1 hour, shacking. 50 μl of btVEGF (R&D Systems, UK, cat no NFVEO) at […] for NRP-1/4 μg/ml Heparin (Sigma, USA, cat no H3393-10KU), 300 μg/ml for NRP-2 and 100 μg/ml for VEGF-R1 solution was added to each well; the plate was sealed and incubated at 37° C. for 2 h, shacking. The last incubation was carried out, after five washes with Buffer A, adding 100 μl/well Streptavidin-Horseradish Peroxidase (Amersham, Switzerland, cat no RPN4401) diluted 1:8000 with buffer A. After 1 h shacking at 37° C. under obscurity, the plate was washed 5 times with buffer A and 100 μl of SuperSignal west picochemiluminescent substrate (Interchim, USA cat no 34078) were added. Luminescence was quantified with an EnVision™ 2101 Multilabel reader (Perkin Elmer, USA) and the data analyzed by Wallac Envision manager software. Signal is given as relative light units (RLU). Non-specific binding is defined as the signal measured in the absence of receptor coated on the microplate. The specific binding was calculated as the difference between total binding and non-specific binding. The percentage of inhibition was calculated as following: […]
structure (smiles),measurement,setting,value
"O=C(NC(=S)Nc1cccc(-c2nc3ccccc3[nH]2)c1)c1ccc2c(c1)OCO2 [Compound 3, N-[3-(1H-benzimidazol-2-yl)phenyl]-N′-(1,3-benzodioxol-5-ylcarbonyl)thiourea]",inhibition of adhesion of cancer cells in culture,MDAMB-231 cells,inhibited the adhesion
same,cytotoxicity for cancer cells in vitro,MDA-MB-231,cytotoxic
same,cytotoxicity for endothelial cell lines (HUVEC cells) in culture,HUVEC cells,cytotoxic
same,inhibition at 10 µM,NRP-1,46 ± 3%
